# Laboratory results from patent US20260284165A1, “COMPOSITIONS AND METHODS FOR TREATMENT OR P[…] OF CANCER INCLUDING TRIPLE NEGATIVE BREAST CANCER AND/OR LUNG CANCER” (The Medical College of Wisconsin, Inc., priority 2023, published 2026).
# Tested on: splenocytes
# Test: IFNγ ELISPOT in splenocytes, cyclin E2 and KIF15 epitopes
# Assay type: cell-based, mice
# Details: after four immunizations
# From the text: We developed both cyclin E2 and KIF15 MHC-II vaccines using the multi-scoring system to identify immunogenic epitopes (Table 4). […] This multi-antigen preventive vaccine should also help overcome antigen-negative variant escape that has been observed with single antigen vaccines. Currently, a mRNA vaccine is also in development that contains the epitopes of TOP2A, cyclin E2 or KIF15 and will test its efficacy and immune response in relevant preclinical animal models.
row,Sequence,type I immunity (IFNγ ELISPOT)
1,AAALCHFTSIEVVKK [p298],elicited type I immunity
2,SHNLRGVIPRSFEYL [p129],elicited type I immunity
3,VVKSTSPVKLKTFKK [p334],elicited type I immunity
